Literature values as cited in patent publication US20260272826A1 (THEAPRIN PHARMACEUTICALS, INC., priority 2017, published 2026).

Legend:
rats = conditions: rat, in vivo
[1] = test system: thrombin stimulated thromboxane formulation in whole blood; conditions: theanine by itself
[2] = tribasic

Row | SMILES | LD50 toxicity (rats) [mg/kg] | solubility in water | inhibition of thrombin stimulated thromboxane formulation [1] | pKa 1 ([2]; first of pKa 1-3) | pKa 2 ([2]; second of pKa 1-3) | pKa 3 ([2]; third of pKa 1-3)
1 | CCNC(=O)CC[C@H](N)C(=O)O [L-theanine, N-ethyl-L-glutamine] | > 5000 | soluble in water | potent inhibitor |  |  | 
2 | O=C(O)CC(O)(CC(=O)O)C(=O)O [Citric Acid, 2-hydroxypropane-1,2,3-tricarboxylic acid] |  |  |  | 5.21 | 4.28 | 2.92
